The target in the first experiment is T1, N-acylethanolamine-hydrolyzing acid amidase (Rattus norvegicus, UniProt Q5KTC7).
T1 sequence (Q5KTC7 whole entry): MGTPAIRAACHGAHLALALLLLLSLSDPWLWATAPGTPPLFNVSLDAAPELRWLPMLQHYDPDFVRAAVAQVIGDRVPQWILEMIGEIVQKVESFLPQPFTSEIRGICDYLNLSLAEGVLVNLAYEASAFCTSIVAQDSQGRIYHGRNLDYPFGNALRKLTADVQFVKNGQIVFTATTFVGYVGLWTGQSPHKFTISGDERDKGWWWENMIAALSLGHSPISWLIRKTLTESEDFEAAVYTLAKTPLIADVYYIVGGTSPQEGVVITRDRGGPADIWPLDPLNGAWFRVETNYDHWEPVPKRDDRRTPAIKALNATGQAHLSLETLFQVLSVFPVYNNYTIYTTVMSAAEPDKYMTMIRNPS
Kind of experiment: Enzymatic Assay: Lysosomal NAAA protein preparation were obtained by homogenizing male Sprague-Dawley rat lungs (Charles River) in 20 mM Tris-HCl buffer pH 7.4 containing 0.32M sucrose. Samples were centrifuged at 800×g for 15 minutes at 4° C. Supernatants were then centrifuged at 12,000 g for 30 minutes at 4° C. Pellets were then resuspended in PBS pH 7.4 and subjected to a freeze/thaw cycle at −80° C. The suspension was finally centrifuged at 105,000×g for 1 hour at 4° C. The supernatant was then used in the enzymatic assay.
With `CC(OC(=O)N[C@H]1C(=O)O[C@H]1C)c1ccc(-c2ccccc2)cc1` (mixture of isomers), it took 50 nM to reach half-maximal inhibition (IC50).

With `C[C@@H]1OC(=O)[C@@H]1NC(=O)OCc1ccc(-c2ccc(C(F)(F)F)cc2)cc1`, half-maximal inhibition (IC50) was put at 24 nM.

The target in another experiment is T2, N-acylethanolamine-hydrolyzing acid amidase (Homo sapiens, UniProt Q02083).
T2 sequence (Q02083 whole entry): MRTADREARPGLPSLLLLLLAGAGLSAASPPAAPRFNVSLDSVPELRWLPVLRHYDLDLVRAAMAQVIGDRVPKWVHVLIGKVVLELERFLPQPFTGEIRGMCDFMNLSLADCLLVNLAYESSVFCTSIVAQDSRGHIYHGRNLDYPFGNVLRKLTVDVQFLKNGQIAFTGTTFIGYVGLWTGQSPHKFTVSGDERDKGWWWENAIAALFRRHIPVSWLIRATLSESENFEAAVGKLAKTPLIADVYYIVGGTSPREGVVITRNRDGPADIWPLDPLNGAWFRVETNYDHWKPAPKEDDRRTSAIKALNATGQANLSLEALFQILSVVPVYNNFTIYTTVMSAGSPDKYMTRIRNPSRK
Kind of experiment: UPLC/MS Assay: NAAA protein preparation (10 ug) was pre-incubated with various concentrations of test compound or vehicle control in 100 mM NaH2PO4, 100 mM Tri Sodium Citrate Dehydrate, 0.1% Triton-X 100, 3 mM DTT, pH 4.5 for 30 min at 37° C. Duplicate samples were then incubated with 50 uM C17:1 10-cis-heptadecenoylethanolamide (Avanti Polar Lipids, Alabaster, Ala. USA) at 37° C. for 30 minutes. The reaction was terminated by the addition of 0.2 mL of cold methanol containing 1 nmol of heptadecanoic acid (NuChek Prep, Elysian, Minn. USA) as internal standard. Samples were then analyzed by UPLC/MS. Heptadecenoic and heptadecanoic acids were eluted on an Acquity UPLC BEH C18 column (50 mm length, 2.1 mm i.d., 1.7 um pore size, Waters) isocratically at 0.5 mL/min for 1.5 min with a solvent mixture of 95% methanol and 5% water, both containing 0.25% Acetic Acid and 5 mM Ammonium Acetate. The column temperature was 40° C. Electrospray ionization was in the negative mode, capillary voltage was 0.5 kV, […], desolvation temperature was 500° C. N2 was used as drying gas at a flow rate of 1000 L/hour and a temperature of 500° C. The [M-H]- ion was monitored in the selected-ion monitoring mode (m/z values: heptadecenoic acid 267.37, heptadecanoic acid 269.37). Calibration curves were generated using commercial heptadecenoic acid (NuCheck Prep). […].
Regarding `CC(OC(=O)N[C@H]1C(=O)O[C@H]1C)c1ccc(-c2ccccc2)cc1` (mixture of isomers), the concentration for half-maximal inhibition (IC50) (commonly the concentration at which inhibition is half-maximal) worked out at 10 nM.

The next experiment concerns the target T2, N-acylethanolamine-hydrolyzing acid amidase. Kind of experiment: Fluorogenic Assay: The assay was run in Optiplate 96-wells black plates, in a total reaction volume of 200 μL. NAAA protein preparation (4.0 μg) was pre-incubated for 10 min with various concentrations of test compounds or vehicle control (5% DMSO) in 100 mM citrate/phosphate buffer (pH 4.5) containing 3.0 mM DTT, 0.1% Triton X-100, 0.05% BSA, 150 mM NaCl. N-(4-methyl-2-oxo-chromen-7-yl)-hexadecanamide was used as a substrate (5.0 μM) and the reaction carried over for 30 min at 37° C. The samples were then read in a Perkin Elmer Envision plate reader using an excitation wavelength of 360 nm and emission 460 nm.
In the case of `CC(C)(C)[C@H]1OC(=O)[C@@H]1NC(=O)OCc1ccc(-c2ccccc2)cc1` (relative stereo), the IC50 stood at 465 nM.

As to `CC(C)[C@H]1OC(=O)[C@@H]1NC(=O)OCc1ccc(-c2ccccc2)cc1` (relative stereo), the IC50 was determined as 23 nM.

`CC[C@H]1OC(=O)[C@@H]1NC(=O)OCc1ccc(-c2ccccc2)cc1` (relative stereo) registered an IC50 of 6 nM.

As for `CC(C)[C@@H]1OC(=O)[C@@H]1NC(=O)OCc1ccc(-c2ccccc2)cc1` (relative stereo), half-maximal inhibition (IC50) was put at 37 nM.

`CC(C)(C)[C@@H]1OC(=O)[C@@H]1NC(=O)OCc1ccc(-c2ccccc2)cc1` (relative stereo) came in with an IC50 of 897 nM.

Regarding `CC[C@@H]1OC(=O)[C@@H]1NC(=O)OCc1ccc(-c2ccccc2)cc1` (relative stereo), half-maximal inhibition (IC50) required 15 nM.

(Values after ChEMBL document CHEMBL3886751, “Disubstituted beta-lactones as inhibitors of N-acylethanolamine acid amidase (NAAA)” (2016).)
